Experiment [1] is filed under the species Rattus norvegicus. As to the kind of experiment: Ability of compound to stimulate in vitro amylase release from rat pancreatic acini. The format is functional.
Experiment [2] is described as follows: Ability of compound to Inhibit the binding of [125I]BH-CCK-8 to Cholecystokinin receptor in isolated guinea pig brain membranes.
Experiment [3] has as its target T1, Cholecystokinin receptor (Rattus norvegicus, UniProt P30551+P30553).
T1 sequence (P30551 whole entry): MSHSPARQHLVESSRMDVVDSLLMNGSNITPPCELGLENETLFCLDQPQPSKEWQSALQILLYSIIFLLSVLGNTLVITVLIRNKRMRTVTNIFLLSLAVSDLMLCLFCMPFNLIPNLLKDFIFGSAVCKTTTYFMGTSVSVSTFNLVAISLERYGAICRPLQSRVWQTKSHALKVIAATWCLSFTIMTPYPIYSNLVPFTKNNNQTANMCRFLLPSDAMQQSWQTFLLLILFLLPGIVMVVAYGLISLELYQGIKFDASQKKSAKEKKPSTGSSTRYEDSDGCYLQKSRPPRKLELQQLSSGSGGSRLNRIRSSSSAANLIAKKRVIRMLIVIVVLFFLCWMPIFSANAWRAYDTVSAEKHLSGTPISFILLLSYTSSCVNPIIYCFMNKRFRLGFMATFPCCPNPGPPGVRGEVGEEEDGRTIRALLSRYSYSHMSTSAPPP
T1 sequence (P30553 whole entry): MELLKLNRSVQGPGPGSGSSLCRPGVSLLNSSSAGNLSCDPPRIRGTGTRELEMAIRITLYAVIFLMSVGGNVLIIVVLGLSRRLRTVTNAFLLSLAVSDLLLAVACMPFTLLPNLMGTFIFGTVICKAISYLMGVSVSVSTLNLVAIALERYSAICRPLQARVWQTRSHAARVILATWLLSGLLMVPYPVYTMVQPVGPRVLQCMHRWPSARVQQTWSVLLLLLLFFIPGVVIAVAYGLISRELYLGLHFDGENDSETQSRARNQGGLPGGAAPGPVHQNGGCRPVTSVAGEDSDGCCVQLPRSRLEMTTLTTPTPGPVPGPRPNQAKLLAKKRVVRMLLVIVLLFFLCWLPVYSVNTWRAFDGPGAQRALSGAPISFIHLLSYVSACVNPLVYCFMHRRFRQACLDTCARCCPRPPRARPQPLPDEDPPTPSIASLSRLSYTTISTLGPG
As to the kind of experiment: Ability of compound to Inhibit the binding of [125I]BH-CCK-8 to Cholecystokinin receptor in isolated rat pancreatic acini. The format is protein assay.

Non-standard residues stand in square brackets, D forms with d. Residues, ends and D or L forms follow the SMILES beside them. *: point of attachment. sY = N[C@@H](Cc1ccc(OS(=O)(=O)O)cc1)C(=O)O; Nle = CCCC[C@H](N)C(=O)O; Boc = CC(C)(C)OC(=O)*

`CCCC[C@H](NC(=O)[C@H](Cc1ccc(OS(=O)(=O)O)cc1)NC(=O)OC(C)(C)C)C(=O)NCNC(=O)[C@H](Cc1c[nH]c2ccccc12)NC(=O)[C@H](CCCC)NC(=O)[C@H](CC(=O)O)NC(=O)[C@@H](Cc1ccccc1)C(N)=O` had a 50% effective concentration (EC50) in experiment [1] of 30 nM. Further, the IC50 in experiment [2] was 1000 nM; in experiment [3] it was 20 nM.
In experiment [1], `CCCC[C@H](NC(=O)[C@H](Cc1ccc(OS(=O)(=O)O)cc1)NC(=O)C(CC(=O)O)NC(=O)OC(C)(C)C)C(=O)NCC(=O)N[C@H](Cc1c[nH]c2ccccc12)C(=O)N[C@@H](CCCC)C(=O)N[C@H](CC(=O)O)NC(=O)CCc1ccccc1` (some centres not stated) yielded a half-maximal effective concentration (EC50) of 130 nM. Moreover, the IC50 in experiment [2] was 40 nM; in experiment [3], 100 nM.
The like results for `CCCC[C@H](NC(=O)[C@H](Cc1ccc(OS(=O)(=O)O)cc1)NC(=O)OC(C)(C)C)C(=O)NCC(=O)N[C@H](Cc1c[nH]c2ccccc12)C(=O)N[C@@H](CCCC)C(=O)N[C@@H](CC(=O)O)C(=O)N[C@@H](Cc1ccccc1)NC=O` were, in that order, 1700 nM, 100 nM and 4000 nM.
Take `CCCC[C@H](NC(=O)[C@H](Cc1ccc(OS(=O)(=O)O)cc1)NC(=O)C(CC(=O)O)NC(=O)OC(C)(C)C)C(=O)NCC(=O)N[C@H](Cc1c[nH]c2ccccc12)C(=O)N[C@@H](CCCC)C(=O)N[C@H](CC(=O)O)NC(=O)[C@@H](Cc1ccccc1)C(N)=O` (some centres not stated): the EC50 in experiment [1] stood at 0.7 nM. Besides, the IC50 stood at 10 nM in experiment [2] and 100 nM in experiment [3].
`CCCC[C@H](NC(=O)[C@H](Cc1ccc(OS(=O)(=O)O)cc1)NC(=O)OC(C)(C)C)C(=O)NCNC(=O)[C@H](Cc1c[nH]c2ccccc12)NC(=O)[C@H](CCCC)NC(=O)[C@H](CC(=O)O)NC(=O)CCc1ccccc1`: it took 17 nM to reach a half-maximal effect in experiment [1] (EC50). Moreover, the figures for the half-inhibitory concentration (IC50) in experiment [2] and in experiment [3] were 100 nM and 40 nM, respectively.
Compound `CCCC[C@H](NC(=O)[C@H](Cc1ccc(OS(=O)(=O)O)cc1)NC(=O)OC(C)(C)C)C(=O)NCC(=O)N[C@@H](Cc1c[nH]c2ccccc12)C(=O)N[C@@H](CCCC)C(=O)N[C@@H](CC(=O)O)C(=O)N[C@@H](Cc1ccccc1)NC=O` registered a 50% effective concentration (EC50) in experiment [1] of 30 nM. For the same compound, the IC50 in experiment [2] came out at 30 nM; in experiment [3], 500 nM.
Take `CCCC[C@@H](NC(=O)CC(=O)N[C@H](Cc1c[nH]c2ccccc12)C(=O)N[C@@H](CCCC)C(=O)N[C@H](CC(=O)O)C(=O)N[C@@H](Cc1ccccc1)C(N)=O)NC(=O)[C@H](Cc1ccc(OS(=O)(=O)O)cc1)NC(=O)C(CC(=O)O)NC(=O)OC(C)(C)C` (some centres not stated): the midpoint of the response in experiment [1], the EC50, lay at 6 nM. Moreover, the figures for the concentration for half-maximal inhibition (IC50) in experiment [2] and in experiment [3] were 2 nM and 500 nM, respectively.
Compound `CCCC[C@H](NC(=O)[C@H](Cc1ccc(OS(=O)(=O)O)cc1)NC(=O)OC(C)(C)C)C(=O)NCC(=O)N[C@@H](Cc1c[nH]c2ccccc12)C(=O)N[C@@H](CCCC)C(=O)N[C@@H](CC(=O)O)C(=O)N[C@@H](Cc1ccccc1)C(N)=O` (Boc-[sY][Nle]GW[Nle]DF-NH2) displayed an EC50 in experiment [1] of 0.05 nM.

The values above are taken from ChEMBL document CHEMBL1124355, “Synthesis and biological activity of some partially modified retro-inverso analogues of cholecystokinin” (J Med Chem, 1989).
